Assay results reported in US5182290A (Neurogen Corporation, priority 1991, dated 1993).
Entries after “also recorded” stand apart in the source; their conditions may differ.

Key:
GABAa receptor = assay: Inhibition of 3H-RO15-1788 (3H-Flumazenil) binding to rat cortical tissue (GABAa receptor assay)
Method: Assays are carried out as described in Thomas and Tallman (J. Bio. Chem. 156: 9838-9842, J. Neurosci. 3:433-440, 1983). Rat cortical tissue is dissected and homogenized in 25 volumes (w/v) of 0.05M Tris HCl buffer (pH 7.4 at 4° C.). The tissue homogenate is centrifuged in the cold (4° C.) at 20,000×g for 20 minutes. The supernatant is decanted and the pellet is rehomogenized in the same volume of buffer and again centrifuged at 20,000× g. The supernatant is decanted and the pellet is frozen at -20° C. overnight. The pellet is then thawed and rehomogenized in 25 volume (original wt/vol) of buffer and the procedure is carried out twice. The pellet is finally resuspended in 50 volumes (w/vol of 0.05M Tris HCl buffer (pH 7.4 at […]).
Incubations contain […] of radioligand 0.5 nM (^3 H-RO15-1788[^3 H-Flumazenil] specific activity 80 Ci/mmol), drug or blocker and buffer to a total volume of […]. Incubations are carried for 30 min at 4° C. then are rapidly filtered through GFB filters to separate free and bound ligand. Filters are washed twice with fresh 0.05M Tris HCl buffer (pH 7.4 at 4° C.) and counted in a liquid scintillation counter. 1.0 mM diazepam is added to some tubes to determine nonspecific binding. Data are collected in triplicate determinations, averaged and % inhibition of total specific binding is calculated. Total Specific Binding=Total-Nonspecific. In some cases, the amounts of unlabeled drugs is varied and total displacement curves of binding are carried out. Data are converted to a form for the calculation of IC50 and Hill Coefficient (nH).

[1] = tested on: benzodiazepine binding site; settings: result in words; Tallman et al., 1978; cited from earlier work
[2] = 3H-RO15-1788 0.5 nM, rat cortical tissue, 30 min at 4° C.

IC50 (GABAa receptor; [2]) [nM] | Compound | Blockade of enhancement of benzodiazepine binding by GABA agonists [1] | also measured
– | Cn1c(=O)c2nc(-c3ccccc3)oc2c2ccccc21 [5-methyl-2-phenyl-oxazolo[4,5-c]quinolin-4(5H)-one] | – | IC50 (GABAa receptor; prior art compound, assay described above, unit inferred): ~50000 nM; activity in the assay (GABAa receptor; prior art compound, result in words): no activity; also recorded: inactive
– | CN1CCc2cc3c(cc2[C@H]1[C@@H]1OC(=O)c2c1ccc1c2OCO1)OCO3 [(+) bicuculline] | blocked | –
– | CN1CCc2cc3c(cc2[C@@H]1[C@H]1OC(=O)c2c1ccc1c2OCO1)OCO3 [(-) bicuculline] | much less active | –
600 | COc1cccc(-c2nc3c(=O)[nH]c4ccccc4c3o2)c1 [Compound 1, 2-(3-Methoxyphenyl)-oxazolo[4,5-c]quinolin-4(5H)-one] | – | –
95 | O=c1[nH]c2ccccc2c2oc(-c3ccccc3)nc12 [Compound 2, 2-Phenyl-oxazolo[4,5-c]quinolin-4(5H)-one] | – | –
125 | COc1ccc(-c2nc3c(=O)[nH]c4ccccc4c3o2)cc1 [Compound 4, 2-(4-Methoxyphenyl)-oxazolo[4,5-c]quinolin-4(5H)-one] | – | –
